From patent publication US12275731B2, “Azaindole inhibitors of wild-type and mutant forms of LRRK2” (DANA-FARBER CANCER INSTITUTE, INC., priority 2018, dated 2025)

Assays:
Test in all cases: KinomeScan profiling
Format in all cases: binding
CDK4 = CDK4 (Homo sapiens, UniProt P11802); details: CDK4, 1 μM; read-out: % control
How it was run: (§1)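 Compounds were screened at 1 μM in DMSO across a 468-kinase KinomeScan panel. Binding was expressed as % control, scaled between a positive control (0%) and DMSO (100%) using luminescence signal. A value under 35% counted as active.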

EPHA2 = EPHA2 (Homo sapiens, UniProt P29317); details: EPHA2, 1 μM; read-out: % control
How it was run: (§2)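 First, compounds in DMSO are added at 1 μM to each of 468 kinase assays. Next, RLU signals are normalised between positive control (0%) and DMSO (100%). Finally, kinases under 35% are flagged active.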

EPHB2 = biological target: T1, EPHB2 (Homo sapiens, UniProt P29323); details: EPHB2, 1 μM; read-out: % control
T1 sequence (P29323 19-1055): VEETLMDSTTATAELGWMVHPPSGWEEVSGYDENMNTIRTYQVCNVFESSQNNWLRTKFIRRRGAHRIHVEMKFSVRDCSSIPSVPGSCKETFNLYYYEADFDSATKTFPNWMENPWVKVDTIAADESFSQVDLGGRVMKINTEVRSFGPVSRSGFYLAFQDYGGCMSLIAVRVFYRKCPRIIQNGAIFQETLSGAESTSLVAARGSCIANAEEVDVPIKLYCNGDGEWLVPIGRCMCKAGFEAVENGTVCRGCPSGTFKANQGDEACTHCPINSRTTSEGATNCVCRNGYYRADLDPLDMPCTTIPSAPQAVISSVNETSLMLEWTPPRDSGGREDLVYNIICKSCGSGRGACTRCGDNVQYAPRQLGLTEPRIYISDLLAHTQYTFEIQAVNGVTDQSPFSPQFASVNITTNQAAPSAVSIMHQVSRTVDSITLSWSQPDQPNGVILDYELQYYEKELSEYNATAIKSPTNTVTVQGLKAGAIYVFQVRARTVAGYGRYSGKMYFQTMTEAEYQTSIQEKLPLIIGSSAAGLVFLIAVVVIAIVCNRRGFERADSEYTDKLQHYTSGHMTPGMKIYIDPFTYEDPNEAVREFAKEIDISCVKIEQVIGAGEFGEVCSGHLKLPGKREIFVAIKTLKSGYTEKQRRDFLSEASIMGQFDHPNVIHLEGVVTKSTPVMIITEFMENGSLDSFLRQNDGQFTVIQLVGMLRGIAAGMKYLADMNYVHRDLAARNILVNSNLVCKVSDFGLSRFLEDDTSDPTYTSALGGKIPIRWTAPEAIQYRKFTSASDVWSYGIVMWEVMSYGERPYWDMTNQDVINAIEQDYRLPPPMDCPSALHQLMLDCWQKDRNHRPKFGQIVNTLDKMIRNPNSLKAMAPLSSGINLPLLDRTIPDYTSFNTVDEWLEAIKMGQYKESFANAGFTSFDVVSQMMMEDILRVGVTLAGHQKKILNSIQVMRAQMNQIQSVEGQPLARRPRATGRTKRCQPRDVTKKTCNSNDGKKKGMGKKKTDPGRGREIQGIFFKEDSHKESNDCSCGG
How it was run: as §1

FLT3-autoinhibited = biological target: T2, FLT3-autoinhibited (Homo sapiens, UniProt P36888); details: read-out: % control
T2 sequence (P36888 564-993 limits assumed): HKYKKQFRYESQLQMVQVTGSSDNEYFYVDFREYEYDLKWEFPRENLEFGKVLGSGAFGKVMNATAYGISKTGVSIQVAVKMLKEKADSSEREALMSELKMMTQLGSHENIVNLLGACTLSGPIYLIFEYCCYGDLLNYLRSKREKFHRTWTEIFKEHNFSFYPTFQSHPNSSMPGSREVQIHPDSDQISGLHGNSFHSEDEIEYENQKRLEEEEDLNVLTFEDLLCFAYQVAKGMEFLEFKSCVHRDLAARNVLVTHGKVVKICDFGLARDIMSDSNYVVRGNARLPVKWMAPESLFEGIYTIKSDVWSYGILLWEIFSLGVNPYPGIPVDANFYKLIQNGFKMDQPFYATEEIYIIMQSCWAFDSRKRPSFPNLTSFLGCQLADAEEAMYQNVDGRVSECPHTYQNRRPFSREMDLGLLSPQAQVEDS
How it was run: as §1

NDR1 = NDR1 (Homo sapiens, UniProt Q15208); details: NDR1, 1 μM; read-out: % control
How it was run: as §1

PAK7 = PAK7 (Homo sapiens, UniProt Q9P286); details: PAK7, 1 μM; read-out: % control
How it was run: as §2

RET = RET (Homo sapiens, UniProt P07949); details: read-out: % control
How it was run: as §1

TLK1 = biological target: T3, TLK1 (Homo sapiens, UniProt Q9UKI8); details: TLK1, 1 μM; read-out: % control
T3 sequence (Q9UKI8 1-766): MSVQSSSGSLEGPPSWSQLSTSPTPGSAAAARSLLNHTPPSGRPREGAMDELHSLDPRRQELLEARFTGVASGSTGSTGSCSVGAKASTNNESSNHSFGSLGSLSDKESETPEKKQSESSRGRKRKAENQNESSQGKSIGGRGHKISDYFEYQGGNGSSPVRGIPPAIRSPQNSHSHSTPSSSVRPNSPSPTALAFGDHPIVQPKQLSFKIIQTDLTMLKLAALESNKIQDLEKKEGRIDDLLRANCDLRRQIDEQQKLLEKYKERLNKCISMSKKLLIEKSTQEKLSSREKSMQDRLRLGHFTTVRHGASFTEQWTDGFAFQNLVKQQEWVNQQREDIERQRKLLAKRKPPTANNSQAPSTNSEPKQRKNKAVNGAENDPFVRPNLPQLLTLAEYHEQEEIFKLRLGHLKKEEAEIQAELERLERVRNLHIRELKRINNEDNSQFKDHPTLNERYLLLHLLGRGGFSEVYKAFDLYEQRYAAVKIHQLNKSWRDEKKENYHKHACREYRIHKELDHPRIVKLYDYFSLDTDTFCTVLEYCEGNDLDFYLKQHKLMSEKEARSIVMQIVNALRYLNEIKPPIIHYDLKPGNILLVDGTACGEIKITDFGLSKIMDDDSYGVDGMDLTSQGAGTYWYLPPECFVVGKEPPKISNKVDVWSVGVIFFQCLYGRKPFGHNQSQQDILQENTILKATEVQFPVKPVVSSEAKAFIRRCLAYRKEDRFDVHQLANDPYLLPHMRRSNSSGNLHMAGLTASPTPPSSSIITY
How it was run: as §1

Chain of EPHA2 (P29317 24-976): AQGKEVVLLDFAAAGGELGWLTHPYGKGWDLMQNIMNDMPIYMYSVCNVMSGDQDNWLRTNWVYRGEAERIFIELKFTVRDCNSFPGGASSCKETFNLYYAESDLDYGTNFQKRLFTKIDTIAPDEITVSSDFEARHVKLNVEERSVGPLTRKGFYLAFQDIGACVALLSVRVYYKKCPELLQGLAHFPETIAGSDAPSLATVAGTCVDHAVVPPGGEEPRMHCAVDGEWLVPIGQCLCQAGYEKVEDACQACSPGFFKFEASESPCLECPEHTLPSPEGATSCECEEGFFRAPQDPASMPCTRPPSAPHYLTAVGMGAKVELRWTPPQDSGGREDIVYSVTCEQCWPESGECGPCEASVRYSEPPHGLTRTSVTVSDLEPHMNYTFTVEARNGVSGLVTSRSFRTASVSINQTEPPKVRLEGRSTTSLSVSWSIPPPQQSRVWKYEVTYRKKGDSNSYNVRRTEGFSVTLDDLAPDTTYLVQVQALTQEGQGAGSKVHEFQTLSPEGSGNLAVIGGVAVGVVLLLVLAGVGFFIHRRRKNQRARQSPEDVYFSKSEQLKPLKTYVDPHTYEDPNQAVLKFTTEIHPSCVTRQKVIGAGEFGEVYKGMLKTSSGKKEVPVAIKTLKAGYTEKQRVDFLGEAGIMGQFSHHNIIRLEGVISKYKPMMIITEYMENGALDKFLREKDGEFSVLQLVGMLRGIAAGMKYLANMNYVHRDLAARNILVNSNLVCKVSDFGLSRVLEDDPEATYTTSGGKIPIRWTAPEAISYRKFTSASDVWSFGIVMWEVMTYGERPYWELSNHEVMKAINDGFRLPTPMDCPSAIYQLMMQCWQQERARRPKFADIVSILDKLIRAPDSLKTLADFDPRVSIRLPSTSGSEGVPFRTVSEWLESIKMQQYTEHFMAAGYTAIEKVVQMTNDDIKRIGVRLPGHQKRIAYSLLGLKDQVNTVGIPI
Chain of NDR1 (Q15208 whole entry): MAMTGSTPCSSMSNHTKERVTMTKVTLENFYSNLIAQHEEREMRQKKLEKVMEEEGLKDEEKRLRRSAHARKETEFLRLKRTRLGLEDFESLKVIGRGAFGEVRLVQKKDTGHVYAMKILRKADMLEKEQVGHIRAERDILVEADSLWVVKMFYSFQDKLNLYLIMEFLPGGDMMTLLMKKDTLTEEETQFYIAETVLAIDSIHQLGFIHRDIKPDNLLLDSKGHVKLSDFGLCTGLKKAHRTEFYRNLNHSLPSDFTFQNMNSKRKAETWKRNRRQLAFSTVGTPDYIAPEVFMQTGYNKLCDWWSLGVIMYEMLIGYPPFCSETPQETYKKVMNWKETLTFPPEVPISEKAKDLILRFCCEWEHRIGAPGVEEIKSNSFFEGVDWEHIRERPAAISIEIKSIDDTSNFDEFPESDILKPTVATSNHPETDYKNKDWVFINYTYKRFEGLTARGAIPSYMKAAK
Chain of CDK4 (P11802 whole entry): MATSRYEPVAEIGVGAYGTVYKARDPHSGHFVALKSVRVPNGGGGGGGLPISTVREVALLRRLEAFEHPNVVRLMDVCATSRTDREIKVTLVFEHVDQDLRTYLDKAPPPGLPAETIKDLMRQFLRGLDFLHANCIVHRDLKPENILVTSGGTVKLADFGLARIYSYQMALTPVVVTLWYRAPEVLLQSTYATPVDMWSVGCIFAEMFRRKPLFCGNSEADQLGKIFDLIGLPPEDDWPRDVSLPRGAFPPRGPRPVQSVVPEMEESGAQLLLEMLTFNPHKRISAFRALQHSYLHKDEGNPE
Chain of PAK7 (Q9P286 whole entry): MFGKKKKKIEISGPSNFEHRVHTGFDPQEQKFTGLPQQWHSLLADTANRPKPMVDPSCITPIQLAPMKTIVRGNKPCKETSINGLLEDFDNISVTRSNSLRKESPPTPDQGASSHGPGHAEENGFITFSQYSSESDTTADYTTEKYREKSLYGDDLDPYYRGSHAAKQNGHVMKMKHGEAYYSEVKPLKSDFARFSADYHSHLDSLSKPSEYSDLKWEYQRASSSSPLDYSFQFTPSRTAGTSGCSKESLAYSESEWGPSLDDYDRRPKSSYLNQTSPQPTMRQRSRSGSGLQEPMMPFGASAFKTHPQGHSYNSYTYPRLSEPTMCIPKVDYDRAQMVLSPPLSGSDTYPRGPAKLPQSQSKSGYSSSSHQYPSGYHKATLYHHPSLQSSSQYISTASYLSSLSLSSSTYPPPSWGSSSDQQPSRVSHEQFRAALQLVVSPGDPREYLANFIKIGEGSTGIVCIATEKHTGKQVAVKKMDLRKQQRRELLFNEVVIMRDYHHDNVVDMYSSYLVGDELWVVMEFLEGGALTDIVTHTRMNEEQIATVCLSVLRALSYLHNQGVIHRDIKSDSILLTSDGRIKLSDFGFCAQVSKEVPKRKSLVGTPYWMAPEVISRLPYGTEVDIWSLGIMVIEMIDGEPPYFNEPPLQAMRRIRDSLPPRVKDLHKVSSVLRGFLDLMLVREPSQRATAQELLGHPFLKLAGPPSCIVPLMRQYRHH
Chain of RET (P07949 29-1114): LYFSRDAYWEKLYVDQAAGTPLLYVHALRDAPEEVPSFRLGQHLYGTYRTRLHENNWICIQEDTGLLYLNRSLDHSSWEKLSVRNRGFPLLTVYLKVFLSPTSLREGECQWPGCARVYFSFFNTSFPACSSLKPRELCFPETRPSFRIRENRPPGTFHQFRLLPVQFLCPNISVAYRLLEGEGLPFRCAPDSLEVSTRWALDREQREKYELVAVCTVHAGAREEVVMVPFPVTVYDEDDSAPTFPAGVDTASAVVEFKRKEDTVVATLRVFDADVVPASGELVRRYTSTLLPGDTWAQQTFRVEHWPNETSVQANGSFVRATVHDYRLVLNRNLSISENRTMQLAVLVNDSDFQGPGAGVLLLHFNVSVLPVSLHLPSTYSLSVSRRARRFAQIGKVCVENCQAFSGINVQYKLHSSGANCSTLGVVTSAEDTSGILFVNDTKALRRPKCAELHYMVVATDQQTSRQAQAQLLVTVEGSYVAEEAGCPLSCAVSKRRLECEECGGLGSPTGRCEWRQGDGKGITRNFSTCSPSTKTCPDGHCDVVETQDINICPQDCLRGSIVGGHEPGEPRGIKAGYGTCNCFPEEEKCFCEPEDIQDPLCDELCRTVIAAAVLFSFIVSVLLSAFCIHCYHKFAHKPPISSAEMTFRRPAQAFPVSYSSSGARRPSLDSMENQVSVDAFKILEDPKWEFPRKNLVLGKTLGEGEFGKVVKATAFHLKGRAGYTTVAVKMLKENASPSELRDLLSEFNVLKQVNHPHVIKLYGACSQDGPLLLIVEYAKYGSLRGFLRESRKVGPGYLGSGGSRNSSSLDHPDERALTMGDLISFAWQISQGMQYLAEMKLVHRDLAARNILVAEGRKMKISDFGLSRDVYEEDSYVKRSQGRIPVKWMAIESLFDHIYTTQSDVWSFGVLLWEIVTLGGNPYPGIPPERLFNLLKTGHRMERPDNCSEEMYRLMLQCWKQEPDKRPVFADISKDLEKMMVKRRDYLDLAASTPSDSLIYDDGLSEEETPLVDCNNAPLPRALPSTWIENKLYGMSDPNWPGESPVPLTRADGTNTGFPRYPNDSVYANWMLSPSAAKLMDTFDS

| SMILES | remaining binding at 1 µM (CDK4) [%] | remaining binding at 1 µM (EPHA2) [%] | remaining binding at 1 µM (EPHB2) [%] | remaining binding at 1 µM (FLT3-autoinhibited) [%] | remaining binding at 1 µM (NDR1) [%] | remaining binding at 1 µM (PAK7) [%] | remaining binding at 1 µM (RET) [%] | remaining binding at 1 µM (TLK1) [%] |
| --- | --- | --- | --- | --- | --- | --- | --- | --- |
| CNc1c(-c2cnn([C@H]3CCN(C(C)=O)C[C@@H]3F)c2)cnc2[nH]cc(Cl)c12 [Compound 77, 1-((3S,4S)-4-(4-(3-chloro-4-(methylamino)-1H-pyrrolo[2,3-b]pyridin-5-yl)-1H-pyrazol-1-yl)-3-fluoropiperidin-1-yl)ethan-1-one] | 85 | 96 | 98 | 53 | 74 | 100 | 27 | 95 |
| CNc1c(-c2ccc(C(=O)N3CCC(N4CCOCC4)CC3)cc2)cnc2[nH]cc(Cl)c12 [Compound 96, (4-(3-chloro-4-(methylamino)-1H-pyrrolo[2,3-b]pyridin-5-yl)phenyl)(4-morpholinopiperidin-1-yl)methanone] | 98 | 100 | 97 | 93 | 69 | 41 | 80 | 95 |
| O=C(c1ccc(-c2cnc3[nH]cc(Cl)c3c2NC2CCCC2)cc1)N1CCC(N2CCOCC2)CC1 [Compound 101, (4-(3-chloro-4-(cyclopentylamino)-1H-pyrrolo[2,3-b]pyridin-5-yl)phenyl)(4-morpholinopiperidin-1-yl)methanone] | 100 | 30 | 97 | 62 | 84 | 95 | 85 | 90 |
